# Experimental data reported in PMC5355235, “FLT3 activating mutations display differential sensitivity to multiple tyrosine kinase inhibitors” (Oncotarget, 2017).
# Like-named read-outs stand apart in the source and are kept apart here.
# Tests used:
# BaF3/ITD cells = assay: MTT growth inhibition assay, BaF3 FLT3-ITD cells; assay type: cell-based; settings: Mus musculus, no IL-3, 48 h, read-out: Proliferation IC50
# Experimental: (§1) Figure 1 Growth of AL mutants in the presence of FLT3 TKI The BaF3 AL mutants were grown in the absence of IL-3 and analyzed by treatment in increasing concentrations of FLT3 TKI for 48 hours, after which growth inhibition was assessed using the MTT assay. Means are representative of at least three independent experiments.
# (§2) The cells were grown in the absence of IL3 and analyzed by treatment in increasing concentrations of FLT3 TKI for 48 hours, after which growth inhibition was assessed using the MTT assay. Each experiment was performed at least three times and representative results are shown.
# (§3) Based on Trypan Blue exclusion, 2 × 10^4 viable cells were seeded in quadruplicate in a 96-well microtiter plate in the presence or absence of inhibitor for 48 h. The effect of drug activity on cell viability was measured using the 3-(4,5-Dimethylthiazol-2-yl)-2,5-diphenyltetrazolium bromide (MTT) assay according to the manufacturer's instructions (Roche Applied Science, Indianapolis, IN, USA). Following treatment, cells were incubated for 4 h in MTT followed by dissolution in solubilization buffer overnight. Absorbance was measured at 570 nm on a Bio-Rad plate reader (Hercules, CA, USA). […] Results shown are presented as means and are representative of at least three independent experiments.
# [1] = tested on: BaF3 FLT3 D835Y mutant cells; assay: MTT growth inhibition assay, BaF3 FLT3 D835Y cells; assay type: cell-based; settings: Mus musculus, no IL-3, 48 h, read-out: Proliferation IC50
# Experimental: as §1, §2, §3
# [2] = tested on: BaF3 FLT3 D835A mutant cells; assay: MTT growth inhibition assay, BaF3 FLT3 D835A cells; assay type: cell-based; settings: Mus musculus, read-out: Proliferation IC50
# Experimental: as §1, §2, §3
# [3] = tested on: BaF3 FLT3 D835G mutant cells; assay: MTT growth inhibition assay, BaF3 FLT3 D835G cells; assay type: cell-based; settings: Mus musculus, no IL-3, 48 h, read-out: Proliferation IC50
# Experimental: as §1, §2, §3
# [4] = tested on: BaF3 FLT3 D835N mutant cells; assay: MTT growth inhibition assay, BaF3 FLT3 D835N cells; assay type: cell-based; settings: Mus musculus, no IL-3, 48 h, read-out: Proliferation IC50
# Experimental: as §1, §2, §3
# [5] = tested on: BaF3 FLT3 D835L+K mutant cells; assay: MTT growth inhibition assay, BaF3 FLT3 D835L+K cells; assay type: cell-based; settings: Mus musculus, no IL-3, 48 h, read-out: Proliferation IC50
# Experimental: as §1, §2, §3
# [6] = tested on: BaF3 FLT3 I836L+D mutant cells; assay: MTT growth inhibition assay, BaF3 FLT3 I836L+D cells; assay type: cell-based; settings: Mus musculus, no IL-3, 48 h, read-out: Proliferation IC50
# Experimental: as §1, §2, §3
# [7] = tested on: BaF3 FLT3 I836S mutant cells; assay: MTT growth inhibition assay, BaF3 FLT3 I836S cells; assay type: cell-based; settings: Mus musculus, read-out: Proliferation IC50
# Experimental: as §1, §2, §3
# [8] = tested on: BaF3 FLT3 I836T mutant cells; assay: MTT growth inhibition assay, BaF3 FLT3 I836T cells; assay type: cell-based; settings: Mus musculus, no IL-3, 48 h, read-out: Proliferation IC50
# Experimental: as §1, §2, §3
# [9] = tested on: BaF3 FLT3 840G+S mutant cells; assay: MTT growth inhibition assay, BaF3 FLT3 840G+S cells; assay type: cell-based; settings: Mus musculus, no IL-3, 48 h, read-out: Proliferation IC50
# Experimental: as §1, §2, §3
# [10] = tested on: BaF3 FLT3 D593D mutant cells; assay: MTT growth inhibition assay, BaF3 FLT3 D593D cells; assay type: cell-based; settings: Mus musculus, no IL-3, 48 h, read-out: Proliferation IC50
# Experimental: as §1, §2, §3
# all FLT3 AL mutants = settings: read-out: FLT3 autophosphorylation IC50, BaF3 cells, 1 h treatment, Western blot
# Experimental: Activated FLT3 expression was measured by performing immunoprecipitation, SDS-PAGE and Western blotting as previously described. Specifically, 10^7 cells were washed in medium and treated with inhibitor for 1 h followed by stimulation with 25 ng/ml of FLT3 ligand for 15 minutes where indicated. Cells were washed twice with ice-cold PBS and lysed in 300 µl of NP-40 lysis buffer (150 mM NaCl, 20 mM TrisHCl (pH7.4), 10% glycerol, 1% NP-40, 10 mM EDTA, 100 mM NaF) with 2 mM Na3VO4 and protease inhibitors (Complete Tablets, Roche, Mannheim, Germany) at 4°C for 30 m. Cell lysate was harvested by centrifugation at 13,000 × g for 30 m at 4°C. FLT3 S-18 antibody was incubated with 500 µg lysate overnight at 4°C followed by immunoprecipitation with protein A-agarose beads for 2 h. Beads were washed once in Tris buffered saline with 1% Tween-20 (TBST) and twice in TBS. Samples were boiled in sodium dodecyl sulfate (SDS) sample buffer prior to separating in a 8% SDS-polyacrylamide gel (SDS-PAGE). Proteins were transferred to a polyvinyl diflouride (PVDF) membrane (Millipore, Bedford, MA, USA) and detected by 4G10 phosphotyrosine antibody and anti-FLT3 S-18 antibody. FLT3 was visualized using the Odyssey Infra Red Imaging System from Li-Cor (Lincoln, NE, USA) using AlexaFluor 680 goat anti-mouse and AlexaFluor 800 goat anti-rabbit antibodies. […]
# FLT3/ITD = FLT3/ITD autophosphorylation and signaling pathways, Western blot; assay type: cell-based; settings: FLT3/ITD cells, 1 h, concentration-dependent
# Experimental: Activated FLT3 expression was measured by performing immunoprecipitation, SDS-PAGE and Western blotting as previously described. Specifically, 10^7 cells were washed in medium and treated with inhibitor for 1 h followed by stimulation with 25 ng/ml of FLT3 ligand for 15 minutes where indicated. Cells were washed twice with ice-cold PBS and lysed in 300 µl of NP-40 lysis buffer (150 mM NaCl, 20 mM TrisHCl (pH7.4), 10% glycerol, 1% NP-40, 10 mM EDTA, 100 mM NaF) with 2 mM Na3VO4 and protease inhibitors (Complete Tablets, Roche, Mannheim, Germany) at 4°C for 30 m. Cell lysate was harvested by centrifugation at 13,000 × g for 30 m at 4°C. FLT3 S-18 antibody was incubated with 500 µg lysate overnight at 4°C followed by immunoprecipitation with protein A-agarose beads for 2 h. Beads were washed once in Tris buffered saline with 1% Tween-20 (TBST) and twice in TBS. Samples were boiled in sodium dodecyl sulfate (SDS) sample buffer prior to separating in a 8% SDS-polyacrylamide gel (SDS-PAGE). Proteins were transferred to a polyvinyl diflouride (PVDF) membrane (Millipore, Bedford, MA, USA) and detected by 4G10 phosphotyrosine antibody and anti-FLT3 S-18 antibody. FLT3 was visualized using the Odyssey Infra Red Imaging System from Li-Cor (Lincoln, NE, USA) using AlexaFluor 680 goat anti-mouse and AlexaFluor 800 goat anti-rabbit antibodies. Phosphorylation of the FLT3 downstream signaling mediators, STAT5, AKT and MAP kinase was investigated by loading 50 µg of whole cell lysate and probing with the indicated antibodies. The membrane was washed and incubated in goat anti-rabbit secondary antibody conjugated to horseradish peroxidase followed by enhanced chemiluminescence (ECL). The membrane was subsequently stripped in 200 mM glycine buffer, pH 2.5 with 0.1% Tween-20 and reprobed for STAT5, AKT and MAP kinase expression using the respective antibodies.
# BaF3 FLT3 D835Y cells = assay: Engraftment of BaF3 D835Y luciferase cells in BALB/c mice, bioluminescence imaging; assay type: in vivo; settings: 20 mg/kg twice daily subcutaneous, day 5 to day 9
# Experimental: On day 5 following transplantation, the level of engraftment was assessed by imaging mice for bioluminescence on an IVIS Spectrum imager. […] This experiment was repeated three times.
# Cells were sorted for GFP and CD135 expression on a FACS AriaII cytometer using FACSDiva software. For engraftment, 2 ×10^6 cells were injected via tail vein into BALB/c mice (Jackson Laboratories, Bar Harbor, ME, USA) (day 0). […] [36, 37] […] Mice were imaged by intraperitoneal injection of luciferin (3 mg) and visualizing on an IVIS Spectrum imager (Caliper LifeSciences, Hopkinton, MA, USA) using Living Image software for analysis on day 5 following inoculation to monitor engraftment and on day 9 to assess drug effect. All animal procedures were conducted in accordance with the policy of the Johns Hopkins University School of Medicine Animal Care and Use Committee.
# [11] = BaF3 FLT3 D835A, no IL-3, 48 h, MTT
# [12] = BaF3 FLT3 I836S, no IL-3, 48 h, MTT
IC50 (BaF3/ITD cells),IC50 [1],"IC50 [2, 11]",IC50 [3],IC50 [4],IC50 [5],IC50 [6],"IC50 [7, 12]",IC50 [8],IC50 [9],IC50 [10],Compound,"IC50 ([2]; BaF3, 48 h)","IC50 ([7]; BaF3, 48 h)",IC50 (all FLT3 AL mutants),"Inhibition of FLT3 autophosphorylation and phosphorylation of STAT5, AKT and Map kinase (FLT3/ITD)",Leukemic burden (bioluminescence) on day 9 (BaF3 FLT3 D835Y cells)
41 nM,> 200 nM,62 nM,56 nM,58.3 nM,> 200 nM,> 200 nM,> 200 nM,31.9 nM,35 nM,> 200 nM,O=C(c1ccc(/C=C/c2n[nH]c3ccccc23)cc1)N1CCNCC1 [KW2449],–,–,–,–,–
2.4 nM,> 100 nM,> 200 nM,8.6 nM,10.3 nM,> 200 nM,> 200 nM,> 200 nM,5.3 nM,2.1 nM,> 200 nM,Cc1ccc(F)c(NC(=O)Nc2ccc(-c3cccc4[nH]nc(N)c34)cc2)c1 [Linifanib],–,–,–,–,–
–,–,–,–,–,–,–,–,–,12 nM,–,CO[C@@H]1[C@H](N(C)C(=O)c2ccccc2)C[C@H]2O[C@]1(C)n1c3ccccc3c3c4c(c5c6ccccc6n2c5c31)C(=O)NC4 [Midostaurin],–,–,–,–,–

Compound,IC50 (BaF3/ITD cells),IC50 [1],"IC50 [2, 11]",IC50 [3],IC50 [4],IC50 [5],IC50 [6],"IC50 [7, 12]",IC50 [8],IC50 [9],IC50 [10],"IC50 ([2]; BaF3, 48 h)","IC50 ([7]; BaF3, 48 h)",IC50 (all FLT3 AL mutants),"Inhibition of FLT3 autophosphorylation and phosphorylation of STAT5, AKT and Map kinase (FLT3/ITD)",Leukemic burden (bioluminescence) on day 9 (BaF3 FLT3 D835Y cells)
C[C@]12O[C@H](C[C@]1(O)CO)n1c3ccccc3c3c4c(c5c6ccccc6n2c5c31)CNC4=O [Lestaurtinib],8.6 nM,9.8 nM,–,6 nM,7.6 nM,2.1 nM,2.1 nM,–,13.4 nM,8 nM,8 nM,5 nM,15 nM,≤ 5 nM,inhibited FLT3 autophosphorylation,greatly reduced
